{"source": "BindingDB's records for patent US11802133", "about": "(Hoffmann-La Roche, 2023)", "target": "T1, Monoglyceride lipase (Homo sapiens, UniProt Q99685)", "T1 sequence (Q99685 whole entry)": "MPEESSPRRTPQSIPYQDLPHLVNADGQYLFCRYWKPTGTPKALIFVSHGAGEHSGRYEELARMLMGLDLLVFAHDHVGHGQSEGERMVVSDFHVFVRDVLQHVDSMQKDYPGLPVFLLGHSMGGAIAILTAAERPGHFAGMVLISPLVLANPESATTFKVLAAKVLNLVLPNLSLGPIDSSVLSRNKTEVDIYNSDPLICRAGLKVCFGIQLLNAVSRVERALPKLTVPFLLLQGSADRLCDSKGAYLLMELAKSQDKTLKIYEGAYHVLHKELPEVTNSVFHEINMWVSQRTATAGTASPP", "assay": "MAGL Inhibitory Activity Assay", "description": "The plate was shaked for 1 min at 2000 rpm (Variomag Teleshake) and then incubated for 15 min at RT. […] The final concentrations in the assay were 1 nM MAGL and 300 μM 4-Nitrophenylacetate. […] A second measurement was then done after incubation for 80 min at RT. From the two measurements, the slope was calculated by subtracting the first from the second measurement."}
{"smiles": "O=C1CO[C@H]2CCN(C(=O)N3CC(OCc4cccc(OC(F)(F)F)c4)C3)C[C@H]2N1", "note": "[US11802133, Example 226]", "values": [{"measurement": "IC50", "value": 0.045, "unit": "µM"}]}
{"smiles": "O=C1CO[C@H]2CCN(C(=O)N3CC(CCc4ccc(O)cc4C(F)(F)F)C3)C[C@H]2N1", "note": "[US11802133, Example 293]", "values": [{"measurement": "IC50", "value": 0.03, "unit": "µM"}]}
